Tested on: CaCl2-induced abdominal aortic aneurysm
Test: CaCl2-induced AAA animal efficacy model, mice
Format: in vivo, 129SvEv mice
Conditions: 28 days, aortic lumenal perimeter
Description: A targeted application of a calcium chloride solution to the mouse aorta induces vessel dilatation Chiou et al. J. Surg. Res. (2001), 99: 371-376; Lomgo et al. J. Clin. Invest. (2002), 110: 625-632. Two weeks after treatment, the vessel dilatation compared to the original vessel diameter becomes statistically significant, with up to 75% increase of aortic lumenal perimeter after 4 weeks. Calcium precipitates have been localized primarily within the elastic network of the media. Disruption of this structure by the calcium-elastic tissue complex weakens the vessel wall, contributing to aneurysm formation. This injury also serves as a proinflammatory stimulus, recruiting neutrophils, lymphocytes, monocytes, and mast cells.
Mice: 129SvEv males, 7 weeks of age, are acquired from Taconic Farms, Germantown, N.Y., USA.
Aneurysm Induction Model: All procedures are performed in accordance with Eli Lilly and Company Institutional Animal Care and Use guidelines. Upon their arrival, animals have a one week acclimation period during which they have ad libitum access to standard rodent chow (Purina #2014) and house water. Following the acclimation period, animals are anesthetized with isoflurane, and a laparotomy is performed for the CaCl2-stimulated induction of the abdominal aortic aneurysm (AAA). […] Interior cross sectional lumenal perimeter measurements (mm) are collected at that point to assess efficacy and statistically analyzed with JMP® 7 software (Cary, N.C.). Statistical Analysis: Measurements of lumenal perimeter are expressed as mean values±SE. […]
The efficacy signal window in the CaCl2-induced abdominal aortic aneurysm model is determined by the lumenal perimeter of the aorta in mice treated with saline-soaked gauze followed by 4-weeks dosing with vehicle that determines 100% efficacy (“Sham Vehicle”) and the lumenal perimeter of the aorta in mice treated with CaCl2-soaked gauze followed by 4-weeks dosing with vehicle (“Vehicle”) that determines 0% efficacy.

Q: `CCCc1c(NC(=O)CC(C)(C)C(=O)[O-])cccc1OCCCOc1cc(O)c(-c2ccc(F)cc2)cc1CC.[Na+]` [Example 2, Sodium 4-[[3-[3-[2-ethyl-4-(4-fluorophenyl)-5-hydroxy-phenoxy]propoxy]-2-propyl-phenyl]amino]-2,2-dimethyl-4-oxo-butanoate] was tested. Which “% Reduced (±S.E.) of AAA” value (10 mg/kg b.i.d. oral gavage) did it give?
A: Its value is 41% ± 13.

Q: What about the “% Reduced (±S.E.) of AAA” value (30 mg/kg b.i.d. oral gavage) of the same compound?
A: Its value is 48% ± 10.

Q: What about the “% Reduced (±S.E.) of AAA” value (60 mg/kg b.i.d. oral gavage) of the same compound?
A: Its value is 58% ± 13.
